This assay relates to BDF1 mice, P388 leukemia ip, median survival T/C. As to the kind of experiment: NCI In Vivo Anticancer Drug Screen. Data for tumor model P388 Leukemia (intraperitoneal) in B6D2F1 (BDF1) mice. As to conditions: endpoint: median survival time, higher = longer survival. The method in brief:
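T/C = treated-group survival ÷ vehicle-control survival; tumour transplanted into mice before dosing.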

[1] abbreviates: dose: 100.0 mg/kg/injection, schedule: Q04DX003 (ip), vehicle: saline with Tween-80.
Setting [2] is: dose: 200.0 mg/kg/injection, schedule: Q04DX003 (ip), vehicle: saline with Tween-80.
Setting [3] is: dose: 400.0 mg/kg/injection, schedule: Q04DX003 (ip), vehicle: saline with Tween-80.
[4] abbreviates: dose: 100.0 mg/kg/injection, schedule: Q01DX009 (ip), vehicle: saline with Tween-80.
Where [5] appears, read: dose: 200.0 mg/kg/injection, schedule: Q01DX009 (ip), vehicle: saline with Tween-80.
[6] abbreviates: dose: 400.0 mg/kg/injection, schedule: Q01DX009 (ip), vehicle: saline with Tween-80.
Where [7] appears, read: dose: 50.0 mg/kg/injection, schedule: Q01DX009 (ip), vehicle: saline with Tween-80.
[8] abbreviates: dose: 100.0 mg/kg/injection, schedule: Q04DX003 (ip), vehicle: Klucel (hydroxypropylcellulose) (HPC).
Setting [9] is: dose: 200.0 mg/kg/injection, schedule: Q04DX003 (ip), vehicle: Klucel (hydroxypropylcellulose) (HPC).
Where [10] appears, read: dose: 50.0 mg/kg/injection, schedule: Q01DX009 (ip), vehicle: saline.
[11] abbreviates: dose: 100.0 mg/kg/injection, schedule: Q01DX009 (ip), vehicle: saline.
Where [12] appears, read: dose: 100.0 mg/kg/injection, schedule: Q04DX003 (ip), vehicle: saline.
[13] abbreviates: dose: 200.0 mg/kg/injection, schedule: Q04DX003 (ip), vehicle: saline.
The mark [14] stands for this setting: dose: 25.0 mg/kg/injection, schedule: Q01DX009 (ip), vehicle: saline.

Where “and” joins values, the source holds several entries; their conditions need not be identical. Identical values can stand only once. Toxic doses and inconclusive results are not listed.

As for `CCC1(Br)OC1=O` (configuration not stated), the T/C by setting is: (dose: 150.0 mg/kg/injection, schedule: Q01DX009 (ip), vehicle: saline) 115 % of control; (dose: 335.0 mg/kg/injection, schedule: Q01DX009 (ip), vehicle: saline) 115 % of control.
For `OC(O)C(F)(F)F`, the T/C (dose: 15.0 mg/kg/injection, schedule: Q04DX003 (ip), vehicle: saline with Tween-80) is 100 % of control; the T/C (dose: 30.0 mg/kg/injection, schedule: Q04DX003 (ip), vehicle: saline with Tween-80) is 100 % of control; the T/C (dose: 60.0 mg/kg/injection, schedule: Q04DX003 (ip), vehicle: saline with Tween-80) is 95 % of control; the T/C under setting [1] was 104 % of control; the T/C under setting [2] is 113 % of control; the T/C under setting [3] is 104 % of control.
Take `CC#CCOCC(CCl)OC(=O)Nc1ccccc1` (configuration not stated): the T/C is 100 % of control under setting [4]; 120 % of control under setting [1]; 112 % of control under setting [5]; 110 % of control under setting [2]; 108 % of control under setting [6]; 100 % of control under setting [3].
Take `COc1cc(NCCN2CCN(CCNc3cc(OC)cc4cccnc34)CC2)c2ncccc2c1`: the T/C is, setting by setting: under setting [7], 113 % of control; under setting [4], 110 % of control; under setting [5], 94 % of control.
Consider `O.O.O.O.O=C([OH2+])CN=Cc1ccccc1O.O=C([OH2+])CN=Cc1ccccc1O.[Ni].[Ni]`, for which the T/C was 100 % of control (dose: 4.0 mg/kg/injection, schedule: Q01DX009 (ip), vehicle: saline with Tween-80); 113 % of control (dose: 6.25 mg/kg/injection, schedule: Q04DX003 (ip), vehicle: saline with Tween-80); 115 % of control (dose: 8.0 mg/kg/injection, schedule: Q01DX009 (ip), vehicle: saline with Tween-80).
Take `CSc1ccc(NC(=O)C(O)C(O)C(O)C(O)CO)cc1` (configuration not stated): the T/C is, setting by setting: (dose: 75.0 mg/kg/injection, schedule: Q01DX009 (ip), vehicle: saline with Tween-80) 100 % of control; (dose: 100.0 mg/kg/injection, schedule: Q04DX003 (ip), vehicle: saline sonified) 104 % of control; (dose: 150.0 mg/kg/injection, schedule: Q01DX009 (ip), vehicle: saline with Tween-80) 100 % of control; (dose: 200.0 mg/kg/injection, schedule: Q04DX003 (ip), vehicle: saline sonified) 104 % of control; (dose: 300.0 mg/kg/injection, schedule: Q01DX009 (ip), vehicle: saline with Tween-80) 100 % of control; (dose: 400.0 mg/kg/injection, schedule: Q04DX003 (ip), vehicle: saline sonified) 104 % of control.
For the molecule `C/C=C(\C)C(=O)OC1CC[N+]2([O-])CCC(COC(=O)/C(=C/C)CO)C12` (configuration not stated), the T/C runs as follows: (dose: 30.0 mg/kg/injection, schedule: Q01DX010 (ip), vehicle: saline) 111 % of control; (dose: 60.0 mg/kg/injection, schedule: Q01DX010 (ip), vehicle: saline) 111 % of control; (dose: 100.0 mg/kg/injection, schedule: Q01DX010 (ip), vehicle: saline) 116 % of control.
`Cc1sc2c(c1-c1ccccc1)C(=O)CCCN2`: the T/C was 108 % of control (dose: 25.0 mg/kg/injection, schedule: Q01DX005 (ip), vehicle: saline with Tween-80); 101 % of control (dose: 50.0 mg/kg/injection, schedule: Q01DX005 (ip), vehicle: saline with Tween-80); 107 % of control (dose: 50.0 mg/kg/injection, schedule: Q04DX003 (ip), vehicle: saline with Tween-80); 118 % of control (dose: 100.0 mg/kg/injection, schedule: Q01DX005 (ip), vehicle: saline with Tween-80); 107 % of control under setting [1]; 118 % of control (dose: 200.0 mg/kg/injection, schedule: Q01DX005 (ip), vehicle: saline with Tween-80). Also, the T/C is, setting by setting: under setting [2], 105 % of control; under setting [3], 105 % of control.
In the case of `CCCNCc1c2c(O)c3c(O)c(C)c4c(c3c1O)C(=O)C(C)(O/C=C/C(OC)C(C)C(OC(C)=O)C(C)C(O)C(C)C(O)C(C)/C=C/C=C(/C)C(=O)N2)O4` (configuration not stated), the T/C is, setting by setting: under setting [7], 90 % of control; under setting [4], 100 % of control.
In the case of `CC(C)c1cc(C(C)C)n2nc(N)nc2n1`, the T/C under setting [4] was 100 % of control, the T/C under setting [5] was 95 % of control and the T/C under setting [6] is 90 % of control.
`O=C(O)O.[Ce]`: the T/C by setting is: under setting [7], 107 % of control; under setting [4], 107 % of control.
With `NC(Cc1ccc(O)cc1)C(=O)N/N=C/c1ccc(N(CCCl)CCCl)cc1` (configuration not stated), the T/C is 108 % of control (dose: 18.0 mg/kg/injection, schedule: Q04DX003 (ip), vehicle: Klucel (hydroxypropylcellulose) (HPC)); 116 % of control (dose: 26.0 mg/kg/injection, schedule: Q04DX003 (ip), vehicle: Klucel (hydroxypropylcellulose) (HPC)); 165 % of control (dose: 60.0 mg/kg/injection, schedule: Q04DX003 (ip), vehicle: Klucel (hydroxypropylcellulose) (HPC)); 169 % of control (dose: 90.0 mg/kg/injection, schedule: Q04DX003 (ip), vehicle: Klucel (hydroxypropylcellulose) (HPC)); 165 % of control under setting [8]; 170 % of control (dose: 133.0 mg/kg/injection, schedule: Q04DX003 (ip), vehicle: Klucel (hydroxypropylcellulose) (HPC)). In addition, the T/C is 192 % of control and 204 % of control under setting [9]; 166 % of control (dose: 300.0 mg/kg/injection, schedule: Q04DX003 (ip), vehicle: Klucel (hydroxypropylcellulose) (HPC)).
Turning to `COC(=O)c1sccc1C=O`, the T/C is, setting by setting: under setting [8], 96 % of control; under setting [9], 96 % of control; (dose: 400.0 mg/kg/injection, schedule: Q04DX003 (ip), vehicle: Klucel (hydroxypropylcellulose) (HPC)) 92 % of control.
On to `O=CNNC(=O)c1ccccn1`, for which the T/C runs as follows: under setting [7], 96 % of control; under setting [10], 100 % of control; (dose: 50.0 mg/kg/injection, schedule: Q04DX003 (ip), vehicle: saline) 100 % of control; under setting [4], 96 % of control; under setting [11], 104 % of control; under setting [1], 113 % of control. The T/C runs as follows: under setting [12], 100 % of control; under setting [5], 96 % of control; under setting [2], 109 % of control; under setting [13], 100 % of control.
Take `CN(C)CCNCc1c[nH]c(=O)[nH]c1=O`: the T/C reads like this: under setting [7], 97 % of control; under setting [4], 94 % of control; under setting [5], 93 % of control.
`Nc1[nH]c(=O)nc2nc[nH]c12`: the T/C is, setting by setting: under setting [14], 112 % of control; under setting [10], 98 % of control; under setting [11], 119 % of control.
On to `CCOc1ccc(S(=O)(=O)O)c2cccnc12`, for which the T/C under setting [12] is 105 % of control; the T/C under setting [13] was 105 % of control; the T/C (dose: 400.0 mg/kg/injection, schedule: Q04DX003 (ip), vehicle: saline) is 105 % of control.
As for `CNC(=O)Oc1coc(CCl)cc1=O`, the T/C (dose: 12.0 mg/kg/injection, schedule: Q01DX009 (ip), vehicle: Klucel (hydroxypropylcellulose) (HPC)) was 95 % of control; the T/C (dose: 16.5 mg/kg/injection, schedule: Q01DX009 (ip), vehicle: saline) was 108 % of control; the T/C (dose: 18.0 mg/kg/injection, schedule: Q01DX009 (ip), vehicle: Klucel (hydroxypropylcellulose) (HPC)) is 86 % of control; the T/C under setting [14] was 120 % of control; the T/C (dose: 27.0 mg/kg/injection, schedule: Q01DX009 (ip), vehicle: Klucel (hydroxypropylcellulose) (HPC)) was 100 % of control; the T/C (dose: 37.5 mg/kg/injection, schedule: Q01DX009 (ip), vehicle: saline) was 116 % of control. For the same molecule, the T/C runs as follows: (dose: 40.0 mg/kg/injection, schedule: Q01DX009 (ip), vehicle: Klucel (hydroxypropylcellulose) (HPC)) 118 % of control; (dose: 60.0 mg/kg/injection, schedule: Q01DX009 (ip), vehicle: Klucel (hydroxypropylcellulose) (HPC)) 118 % of control.
On to `CCC(C)NCCNCCNC(C)CC` (configuration not stated), for which the T/C by setting is: (dose: 6.25 mg/kg/injection, schedule: Q04DX003 (ip), vehicle: saline) 95 % of control; (dose: 12.5 mg/kg/injection, schedule: Q04DX003 (ip), vehicle: saline) 95 % of control; (dose: 25.0 mg/kg/injection, schedule: Q04DX003 (ip), vehicle: saline) 104 % of control.
Take `O=c1[nH]cnc2c(Cl)c(C(Cl)(Cl)Cl)nn12` (tested in a mixture with another compound): the T/C reads like this: under setting [7], 99 % of control; under setting [4], 90 % of control and 103 % of control; under setting [1], 111 % of control; under setting [5], 99 % of control and 114 % of control; under setting [2], 104 % of control; under setting [6], 93 % of control and 112 % of control. For the same molecule, the T/C under setting [3] is 102 % of control.

The values are drawn from PubChem BioAssay AID328 (DTP/NCI, 2004).
